Here are results for eleven compounds from PubChem BioAssay (NCI).

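A five-concentration, 48-hour dose response in 96-well plates underlies each endpoint, interpolated linearly between surrounding concentrations. Definition used: TGI = concentration required for complete inhibition of growth.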

What all share (experiment): NCI-60 cell line screen, 48 h
Assay [1] concerns MALME-3M melanoma.
The test system of assay [2] is K-562 leukemia.
The test system of assay [3] is SNB-75 CNS.
Assay [4] deals with NCI/ADR-RES ovarian.
Assay [5] has as its system A498 renal.
The subject of assay [6] is A549 NSCLC.
Assay [7] relates to HCC-2998 colon.
The test system of assay [8] is M14 melanoma.
Assay [9] relates to 786-0 renal.
Assay [10] concerns ACHN renal.
Assay [11] deals with SK-MEL-5 melanoma.
Assay [12] deals with COLO 205 colon.
Assay [13] deals with SF-295 CNS.

For the compound `COP(=N[Si](C)(C)C)(OC)OC`, the TGI in [1], in [2], in assay [3], in assay [4], in assay [5] and in assay [6] was above 100 µM throughout. Moreover, the TGI in assay [7], in assay [8], in assay [9], in assay [10], in assay [11] and in [12] was above 100 µM in each case.

Take `Cc1cc(Cl)ccc1NC(=O)/C(Cc1nc2ccc(C(=O)c3ccccc3)cc2[nH]c1=O)=N/NC(=O)c1ccncc1`: the TGI in assay [1], in assay [2], in [13], in assay [3], in [4] and in [5] was above 100 µM in each case. The TGI in assay [6], in assay [7], in assay [8], in [9], in [10] and in assay [11] was above 100 µM throughout.

For the compound `COC(=O)C1=C(C(=O)OC)C2(c3ccccc3)c3ccccc3C(=O)C1N2C1CCCCC1` (centres undefined), the TGI in assay [1], in [2], in assay [13], in [3], in assay [4] and in [5] was above 100 µM each time. Moreover, the TGI was above 100 µM in assay [6]; above 77.4 µM in [7]; above 100 µM in assay [8]; above 100 µM in [9]; above 100 µM in [10]; above 100 µM in [11]. This compound also showed a TGI in [12] of 32.8 µM.

With `N#CCN(Cc1ccccc1)[C@H]1CCC[C@]1(O)/C=C/c1ccc2c(c1)OCO2`, the TGI in [1] is 32.1 µM; in [2] it was 51.5 µM; in [13], 31.4 µM; in [3], above 100 µM; in [4] it was 42 µM; in assay [5], above 100 µM. Besides, the TGI was above 100 µM in assay [6]; 33.4 µM in assay [7]; 30.2 µM in assay [8]; 31.4 µM in assay [9]; above 100 µM in [10]; 30.1 µM in assay [11]. For the same compound, the TGI in [12] amounted to 30.5 µM.

`c1ccc2nc3c(nc2c1)sc1nc2ccccc2n13`: the TGI in assay [1], in assay [2], in assay [13], in [3], in assay [4] and in [5] was above 100 µM each time. Further, the TGI in assay [6], in [7], in assay [8], in [9], in assay [10] and in assay [11] was above 100 µM in each case. In addition, in assay [12], the TGI is above 100 µM.

Regarding `Cc1cc2c(c(C=Nc3ccc(N(C)C)cc3)c1)OC1(C=C2)Oc2ccccc2C(=O)N1C` (centres undefined), the TGI in assay [1] is 33.4 µM; in assay [2], 21.1 µM; in [13] it was 46.5 µM; in [3] it was 39.5 µM; in [4], above 60.7 µM; in assay [5] it was 42.1 µM. The TGI in [6] stood at 55.6 µM; in assay [7] it was 30.2 µM; in assay [8] it was 30 µM; in [9], 28.2 µM; in assay [10], 25.5 µM; in assay [11], 27.6 µM. The TGI in assay [12] worked out at 33.9 µM.

As to `O=C1c2scc(-c3ccc(F)cc3)c2-n2cccc21`, the TGI in assay [1] is above 100 µM; in assay [13], above 100 µM; in assay [3], 45.2 µM; in [4], above 100 µM; in [5], 3.1 µM; in assay [6], above 100 µM. For the same compound, the TGI is 91.1 µM in assay [7]; above 100 µM in [8]; 68.6 µM in [9]; above 100 µM in assay [10]; above 100 µM in assay [11]; above 100 µM in [12].

On to `CSC1=C(C)S/C(=C\c2ccc(/C=C3\SC(C)=C(SC)S3)cc2)S1`, for which the TGI in [1], in assay [2], in assay [13], in assay [3], in assay [4] and in assay [5] was above 100 µM in each case. Moreover, the TGI in assay [6], in assay [7], in assay [8], in assay [9], in assay [10] and in assay [11] was above 100 µM in each case. The same compound showed a TGI in assay [12] above 100 µM.

As to `CC(=O)O[C@H]1CC[C@@]2(C)C(=CC[C@H]3[C@@H]4C[C@H](N5CCN(C)CC5)[C@H](OC(C)=O)[C@@]4(C)CC[C@@H]32)C1`, the TGI in assay [1] was 24.8 µM; in [2], 4.07 µM; in [13], 45.7 µM; in assay [3], 62.6 µM; in assay [4], 44.6 µM; in assay [5], 48.3 µM. The TGI in assay [6] was 36 µM; in assay [7] it was 30.1 µM; in assay [8] it was 8.2 µM; in [9] it was 35.3 µM; in [10] it was above 100 µM; in [11], 12.5 µM. This compound yielded a TGI in assay [12] of 32.8 µM.

For the compound `COc1ccccc1/[N+]([O-])=C/c1ccccc1OC(=S)S`, the TGI in assay [1], in assay [2], in assay [13], in assay [3], in [4] and in assay [5] was above 100 µM throughout. Moreover, the TGI is above 100 µM in assay [6]; 80.4 µM in assay [7]; above 100 µM in assay [8]; 85.9 µM in assay [9]; above 100 µM in [10]; above 100 µM in [11]. In assay [12], the TGI is 86 µM.

For `Nc1nc([O-])c([I+]c2ccccc2)c(=O)[nH]1`, the TGI in assay [1], in assay [2], in [13], in assay [3], in [4] and in assay [5] was above 100 µM throughout. Further, the TGI in assay [6], in assay [7], in assay [9], in [10], in [11] and in assay [12] was above 100 µM each time.
